Assay results taken from ChEMBL document CHEMBL1201862, “PubChem BioAssay data set” (2004).
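Protocol summary: plate cells (96-well), add compound at 5 concentrations, incubate 48 h, interpolate endpoints linearly. GI50: concentration for 50% inhibition of growth.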 Calls of active or inactive are those of the source. Rule as the data show it: active = GI50 up to about 1.1 µM and inactive = higher.

Legend:
Assay in all cases: DTP human tumour cell line panel, 48 h
OVCAR-3 = system: OVCAR-3
MOLT-4 = system: MOLT-4
CCRF-CEM = system: CCRF-CEM
KM12 = system: KM12
SF-539 = system: SF-539
A498 = system: A498
A549 = system: A549
NCI-H522 = system: NCI-H522
CAKI-1 = system: CAKI-1
SF-295 = system: SF-295
SN12C = system: SN12C
NCI-H23 = system: NCI-H23
786-0 = system: 786-0
IGROV-1 = system: IGROV-1
BT-549 = system: BT-549
UO-31 = system: UO-31
SNB-75 = system: SNB-75
HCC 2998 = system: HCC 2998
SF-268 = system: SF-268
OVCAR-4 = system: OVCAR-4

Measured: GI50

COc1ccc(C2=Nc3c(nc(SC)[nH]c3=O)NC(c3ccccc3)C2)cc1 (stereo not drawn)
inactive: OVCAR-3 27.5 µM | MOLT-4 18.7 µM | CCRF-CEM 29 µM | KM12 16.6 µM | SF-539 19.4 µM | A498 33.3 µM | A549 24 µM | NCI-H522 17.1 µM | CAKI-1 17.1 µM | SF-295 27.4 µM | SN12C 20.9 µM | NCI-H23 20.6 µM | 786-0 26.3 µM | IGROV-1 19.5 µM | BT-549 24.8 µM | UO-31 20.8 µM | SNB-75 17.8 µM

COc1cc(C2S/C(=C/c3ccccc3)C(=O)N2c2cc(Cl)ccc2Cl)cc(OC)c1OC (stereo not drawn)
inactive: OVCAR-3 32.3 µM | MOLT-4 34.8 µM | CCRF-CEM 35.2 µM | HCC 2998 > 100 µM | KM12 19 µM | SF-539 17.9 µM | A498 > 100 µM | A549 91.8 µM | NCI-H522 21.9 µM | CAKI-1 39.2 µM | SF-295 60.3 µM | SN12C 45.9 µM | SF-268 21.6 µM | NCI-H23 49.4 µM | 786-0 18.8 µM | IGROV-1 18.9 µM | BT-549 39.5 µM | UO-31 55.7 µM

O=C1CC(CC(O)C(O)CO)CC(=O)N1 (stereo not drawn)
inactive: OVCAR-3 > 100 µM | MOLT-4 > 100 µM | CCRF-CEM > 100 µM | HCC 2998 > 100 µM | KM12 > 100 µM | SF-539 > 100 µM | A498 > 100 µM | A549 > 100 µM | NCI-H522 > 100 µM | CAKI-1 > 100 µM | SF-295 > 100 µM | SN12C > 100 µM | SF-268 > 100 µM | NCI-H23 > 100 µM | 786-0 > 100 µM | IGROV-1 > 100 µM | BT-549 > 100 µM | UO-31 > 100 µM

S=C1NC(c2ccccc2)NC(c2ccccc2)S1 (stereo not drawn)
inactive: OVCAR-3 > 100 µM | MOLT-4 > 100 µM | OVCAR-4 > 100 µM | CCRF-CEM 2.2 µM | KM12 > 100 µM | SF-539 > 100 µM | A498 > 100 µM | A549 > 100 µM | NCI-H522 41.6 µM | CAKI-1 > 100 µM | SF-295 > 100 µM | SN12C > 100 µM | SF-268 > 100 µM | NCI-H23 > 100 µM | 786-0 > 100 µM | IGROV-1 > 100 µM | BT-549 > 100 µM | UO-31 > 100 µM | SNB-75 > 100 µM

CC(=O)O[C@H]1C(=O)[C@@]2(C)[C@H]([C@H](OC(=O)C3CCCCC3)[C@]3(O)C[C@H](OC(=O)[C@H](O)[C@@H](NC(=O)OC(C)(C)C)c4ccccc4)C(C)=C1C3(C)C)[C@]1(OC(C)=O)CO[C@@H]1C[C@@H]2O
active: OVCAR-3 0.00125 µM | MOLT-4 0.00474 µM | CCRF-CEM 0.00499 µM | HCC 2998 0.0299 µM | KM12 0.00731 µM | SF-539 0.00298 µM | A549 0.0194 µM | NCI-H522 0.00918 µM | SF-295 0.027 µM | SN12C 0.0385 µM | SF-268 0.202 µM | NCI-H23 0.0261 µM | 786-0 0.0176 µM | IGROV-1 0.00348 µM | BT-549 0.0134 µM | UO-31 0.849 µM | SNB-75 0.402 µM
inactive: OVCAR-4 10.2 µM

COC(=O)C(=O)C(C(=O)C(=O)Nc1ccc(Cl)cc1Cl)c1nc2ccc(Cl)cc2nc1O (stereo not drawn)
inactive: OVCAR-3 > 100 µM | MOLT-4 82.8 µM | OVCAR-4 > 100 µM | CCRF-CEM 69.7 µM | HCC 2998 > 100 µM | KM12 > 100 µM | SF-539 > 100 µM | A549 > 100 µM | NCI-H522 > 100 µM | CAKI-1 > 100 µM | SF-295 > 100 µM | SN12C > 100 µM | SF-268 > 100 µM | NCI-H23 > 100 µM | 786-0 > 100 µM | IGROV-1 58.7 µM | BT-549 > 100 µM | UO-31 28.4 µM | SNB-75 65.2 µM

Nc1ccc2c(c1)NCCN2
inactive: OVCAR-3 > 100 µM | MOLT-4 2.75 µM | OVCAR-4 > 100 µM | HCC 2998 > 100 µM | KM12 > 100 µM | SF-539 14.7 µM | A549 18.2 µM | NCI-H522 7.64 µM | CAKI-1 12.9 µM | SF-295 64.1 µM | SN12C 48.8 µM | SF-268 56.5 µM | NCI-H23 78.9 µM | 786-0 > 100 µM | IGROV-1 8.36 µM | BT-549 37.2 µM | UO-31 17.4 µM | SNB-75 > 100 µM

Cc1cc(C)cc(Nc2nnc3n2S(=O)(=O)c2cc(C#N)c(Cl)cc2S3)c1
active: MOLT-4 1.11 µM | CCRF-CEM 1.07 µM | IGROV-1 0.505 µM
inactive: OVCAR-3 1.57 µM | OVCAR-4 7.98 µM | KM12 1.89 µM | SF-539 1.89 µM | A498 16.3 µM | A549 16.2 µM | NCI-H522 1.87 µM | CAKI-1 3.24 µM | SF-295 2.84 µM | SN12C 2.59 µM | SF-268 2.2 µM | NCI-H23 1.77 µM | 786-0 2.22 µM | BT-549 2.16 µM | UO-31 4.86 µM | SNB-75 2.32 µM

CSc1cc(Br)ccc1-n1c(C(=O)c2ccccc2)c(SC)n(-c2ccccc2)c1=O
inactive: OVCAR-3 > 100 µM | MOLT-4 5.28 µM | OVCAR-4 > 100 µM | HCC 2998 86.9 µM | KM12 > 100 µM | SF-539 > 100 µM | A549 > 100 µM | NCI-H522 54.6 µM | CAKI-1 > 100 µM | SF-295 84.5 µM | SN12C > 100 µM | SF-268 > 100 µM | NCI-H23 86.3 µM | 786-0 > 100 µM | IGROV-1 > 100 µM | BT-549 > 100 µM | UO-31 67 µM | SNB-75 > 100 µM

O=C1c2cccc(NCCCNCCO)c2C(=O)c2cccc(NCCCNCCO)c21
inactive: OVCAR-3 3.05 µM | KM12 2.12 µM | SF-539 1.49 µM | A498 2.8 µM | A549 2 µM | NCI-H23 1.81 µM | 786-0 2.08 µM | IGROV-1 2.81 µM | BT-549 2.05 µM | UO-31 9.59 µM
active: MOLT-4 0.769 µM | CCRF-CEM 0.701 µM | HCC 2998 0.9 µM | NCI-H522 0.373 µM | SN12C 0.935 µM

COC(=O)C1(N2CCOCC2)CCC([C@@H](c2ccccc2)C(C)[N+](=O)[O-])C1 (stereo partly drawn)
inactive: OVCAR-3 18.7 µM | MOLT-4 > 100 µM | OVCAR-4 55.5 µM | HCC 2998 > 100 µM | KM12 > 100 µM | SF-539 > 100 µM | A498 > 100 µM | A549 > 100 µM | SF-295 > 100 µM | SN12C > 100 µM | SF-268 > 100 µM | NCI-H23 > 100 µM | 786-0 75.9 µM | BT-549 16.8 µM | UO-31 > 100 µM | SNB-75 34.5 µM
active: CCRF-CEM 0.603 µM

Cn1c2c(c3ccccc31)CCN1C(=O)C34CCCC3CC21S4 (stereo not drawn)
inactive: OVCAR-3 > 100 µM | MOLT-4 > 100 µM | OVCAR-4 > 100 µM | KM12 > 100 µM | SF-539 > 100 µM | A498 > 100 µM | A549 > 100 µM | NCI-H522 > 100 µM | CAKI-1 > 100 µM | SF-295 > 100 µM | SN12C > 100 µM | SF-268 > 100 µM | NCI-H23 > 100 µM | 786-0 > 100 µM | IGROV-1 > 100 µM | BT-549 > 100 µM | UO-31 > 100 µM

OC1C=C2C3CN(Cc4cc5c(cc43)OCO5)[C@H]2C[C@@H]1O (stereo partly drawn)
inactive: OVCAR-3 7.13 µM | MOLT-4 4.29 µM | OVCAR-4 3.07 µM | CCRF-CEM 2.34 µM | KM12 3.86 µM | SF-539 16.9 µM | A498 6.87 µM | A549 3.74 µM | NCI-H522 7.28 µM | CAKI-1 3.44 µM | SF-295 7.38 µM | SN12C 5.12 µM | SF-268 7.28 µM | NCI-H23 5.96 µM | 786-0 4.12 µM | IGROV-1 4.02 µM | BT-549 2.13 µM | UO-31 6.3 µM
active: SNB-75 0.794 µM

Cc1cc2c(cc1C)C(=O)/C(=N/Nc1ccc(F)cc1)CCO2
inactive: OVCAR-3 > 100 µM | MOLT-4 > 100 µM | OVCAR-4 > 100 µM | CCRF-CEM > 100 µM | HCC 2998 > 100 µM | KM12 > 100 µM | SF-539 > 100 µM | A498 > 100 µM | A549 > 100 µM | NCI-H522 > 100 µM | CAKI-1 > 100 µM | SF-295 27.1 µM | SN12C > 100 µM | SF-268 > 100 µM | NCI-H23 > 100 µM | 786-0 > 100 µM | IGROV-1 > 100 µM | BT-549 > 100 µM | UO-31 > 100 µM

N#CCC1COc2ccccc2O1 (stereo not drawn)
inactive: MOLT-4 > 10 µM | OVCAR-4 > 10 µM | CCRF-CEM > 10 µM | HCC 2998 > 10 µM | KM12 > 10 µM | SF-539 > 10 µM | A549 > 10 µM | NCI-H522 > 10 µM | CAKI-1 > 10 µM | SF-295 > 10 µM | SN12C > 10 µM | SF-268 > 10 µM | NCI-H23 > 10 µM | 786-0 > 10 µM | IGROV-1 > 10 µM | BT-549 > 10 µM | SNB-75 > 10 µM
